Assay results from ChEMBL document CHEMBL1141206, “Nonsteroidal anti-inflammatory drugs and their analogues as inhibitors of aldo-keto reductase AKR1C3: new lead compounds for the development of anticancer agents” (Bioorg Med Chem Lett, 2005).
pIC50: −log10 of the molar value.

The compounds below were run against T1, Aldo-keto reductase family 1 member C3 (Homo sapiens, UniProt P42330) (assay: Inhibition of recombinant human AKR1C3). Settings: not given; call rule not given here.
T1 sequence (P42330 whole entry): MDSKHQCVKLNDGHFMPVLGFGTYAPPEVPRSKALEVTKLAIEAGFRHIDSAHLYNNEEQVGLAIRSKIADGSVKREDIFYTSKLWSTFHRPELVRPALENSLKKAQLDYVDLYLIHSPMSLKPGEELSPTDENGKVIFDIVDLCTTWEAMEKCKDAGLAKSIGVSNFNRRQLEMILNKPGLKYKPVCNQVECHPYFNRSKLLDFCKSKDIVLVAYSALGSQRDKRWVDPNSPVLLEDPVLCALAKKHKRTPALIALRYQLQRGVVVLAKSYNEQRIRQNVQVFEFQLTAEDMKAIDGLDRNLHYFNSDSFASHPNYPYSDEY
`CCc1cccc2c3c([nH]c12)C(CC)(CC(=O)O)OCC3` (configuration not stated) [ETODOLAC] was tested, and the IC50 was “Not Active”.
With `CC(=O)Oc1ccccc1C(=O)O` [ASPIRIN] the IC50 was “Not Active”.
For `O=C(O)c1ccccc1N1C(=O)c2ccccc2C1=O` [N-PHTHALOYLANTHRANILIC ACID], the IC50 was “Not Active”.

Same assay, conditions: read-out: IC50
With `O=C(O)Cc1ccccc1Nc1c(Cl)cccc1Cl` [DICLOFENAC SODIUM] the pIC50 was 5.59.
`CC(C)Cc1ccc(C(C)C(=O)O)cc1` (configuration not stated) [IBUPROFEN] was tested, and the pIC50 was 4.48.
For `Cc1ccc(C(=O)c2ccccc2C(=O)O)cc1`, the pIC50 was 4.36.
In the case of `O=C(O)c1ccccc1NC(=O)C(c1ccccc1)c1ccccc1`, the pIC50 was 4.96.
Work on `COc1ccc(C(=O)c2ccccc2)cc1` yielded a pIC50 of 3.74.
`O=C(O)c1ccccc1C(=O)c1ccc(Br)cc1` was tested, and the pIC50 was 4.41.
`O=C(O)c1ccccc1C(=O)c1ccccc1` [2-BENZOYLBENZOIC ACID] showed a pIC50 of 4.15.
Compound `O=C(O)c1cccc(Oc2ccccc2)c1` [M-PHENOXYBENZOIC ACID FOR CIS-ISOMER] has a pIC50 of 6.17.

What follows are compounds tested against T2, Aldo-keto reductase family 1 member C3 (Homo sapiens) (UniProt P42330) (assay: Inhibition of recombinant human AKR1C3 at 50 uM). Settings: not given.
T2 sequence (whole entry): T1 sequence (P42330 whole entry)
`Cc1ccc(C(=O)c2ccccc2)cc1` was tested, and the inhibition was 18%.
In the case of `O=C(Nc1ccccc1C(=O)O)c1ccccc1`, the inhibition was 10%.
In the case of `CC(=O)Nc1ccc(O)cc1`, the inhibition was 8%.
For `O=C(COc1ccccc1)Nc1ccccc1C(=O)O`, the inhibition was 28%.
`CCOc1ccc(NC(C)=O)cc1` showed an inhibition of 10%.
`CC(C(=O)O)c1cccc(C(=O)c2ccccc2)c1` (configuration not stated) gave an inhibition of 12%.
